Legend:
Details in all cases: 72 h
[1] = tested on: HepG2; experiment: drug sensitivity score (DSS) for viability; higher = more toxic; extreme values may be limits of the assay
[2] = tested on: Caco-2; experiment: as above
[3] = tested on: U2OS; experiment: as above
[4] = tested on: Calu-3; experiment: as above
[5] = tested on: Vero E6; experiment: as above
[6] = tested on: HepG2; experiment: cell viability relative to DMSO; higher = less toxic
[7] = tested on: Caco-2; experiment: as above
[8] = tested on: U2OS; experiment: as above
[9] = tested on: Calu-3; experiment: as above
[10] = tested on: Vero E6; experiment: as above
[11] = tested on: HepG2; experiment: relative viability EC50 (midpoint between 100% and the lowest measured viability); higher = less toxic
[12] = tested on: Caco-2; experiment: as above
[13] = tested on: U2OS; experiment: as above
[14] = tested on: Calu-3; experiment: as above
[15] = tested on: Vero E6; experiment: as above

| SMILES | drug sensitivity score [1] | drug sensitivity score [2] | drug sensitivity score [3] | drug sensitivity score [4] | drug sensitivity score [5] | cell viability ([6]; 1 nM) [%] | cell viability ([6]; 10 nM) [%] | cell viability ([6]; 100 nM) [%] | cell viability ([6]; 1000 nM) [%] | cell viability ([6]; 10000 nM) [%] | cell viability ([7]; 1 nM) [%] | cell viability ([7]; 10 nM) [%] | cell viability ([7]; 100 nM) [%] | cell viability ([7]; 1000 nM) [%] | cell viability ([7]; 10000 nM) [%] | cell viability ([8]; 1 nM) [%] | cell viability ([8]; 10 nM) [%] | cell viability ([8]; 100 nM) [%] | cell viability ([8]; 1000 nM) [%] | cell viability ([8]; 10000 nM) [%] | cell viability ([9]; 1 nM) [%] | cell viability ([9]; 10 nM) [%] | cell viability ([9]; 100 nM) [%] | cell viability ([9]; 1000 nM) [%] | cell viability ([9]; 10000 nM) [%] | cell viability ([10]; 1 nM) [%] | cell viability ([10]; 10 nM) [%] | cell viability ([10]; 100 nM) [%] | cell viability ([10]; 1000 nM) [%] | cell viability ([10]; 10000 nM) [%] | relative viability EC50 [11] [µM] | relative viability EC50 [12] [µM] | relative viability EC50 [13] [µM] | relative viability EC50 [14] [µM] | relative viability EC50 [15] [µM] |
| --- | --- | --- | --- | --- | --- | --- | --- | --- | --- | --- | --- | --- | --- | --- | --- | --- | --- | --- | --- | --- | --- | --- | --- | --- | --- | --- | --- | --- | --- | --- | --- | --- | --- | --- | --- |
| CSc1ccc(C(=O)/C=C/c2cc(C)c(OC(C)(C)C(=O)O)c(C)c2)cc1 [elafibranor] | 0 | 1 | 0 | 0 | 0 | 101 | 108 | 93.5 | 99.1 | 96.3 | 99.5 | 92.5 | 103 | 90.5 | 84.6 | 99.7 | 94 | 97.7 | 98.1 | 94.3 | 101 | 97 | 100 | 108 | 114 | 90.8 | 97 | 89.5 | 91.1 | 98.5 | > 10 | > 10 | > 10 | > 10 | > 10 |
| Cc1cc(O)c2c(c1)C(=O)c1cc(O)cc(O)c1C2=O [emodin] | 0 | 0 | 0 | 0 | 0 | 105 | 96.7 | 105 | 98.5 | 106 | 95.4 | 91 | 92.8 | 93.9 | 97 | 94.2 | 103 | 93.8 | 101 | 103 | 93.6 | 104 | 95 | 94.2 | 102 | 103 | 95 | 97.1 | 100 | 106 | > 10 | > 10 | > 10 | > 10 | > 10 |
| COc1cc(C)nc(-n2nc(C)cc2OC)n1 [epirizole] | 0 | 0 | 0 | 0 | 0 | 103 | 96.7 | 105 | 94 | 97.8 | 83.5 | 92.7 | 82.3 | 97.4 | 89 | 95.1 | 101 | 94.8 | 99.8 | 97 | 91.9 | 92.2 | 88.3 | 97.3 | 86 | 112 | 99.3 | 110 | 105 | 94.9 | > 10 | > 10 | > 10 | > 10 | > 10 |
| C[C@@H](O)[C@H]1C(=O)N2C(C(=O)O)=C(S[C@@H]3CN[C@H](C(=O)Nc4cccc(C(=O)O)c4)C3)[C@H](C)[C@H]12 [ertapenem] | 0 | 2.7 | 0 | 0 | 0 | 90.9 | 97.4 | 93.2 | 103 | 91.9 | 101 | 114 | 84.3 | 96.3 | 85.9 | 94.7 | 98.9 | 96.8 | 101 | 99.5 | 98.2 | 99.7 | 94.4 | 89.7 | 97.8 | 106 | 98.3 | 106 | 100 | 103 | > 10 | > 10 | > 10 | > 10 | > 10 |
| CN1CC[C@@]2(C)c3cc(O)ccc3N(C)[C@@H]12 [eseroline-(-)] | 0.2 | 1.9 | 0 | 0.1 | 0 | 98.2 | 103 | 110 | 109 | 83.7 | 103 | 97.9 | 105 | 89.6 | 77.5 | 106 | 105 | 99.1 | 101 | 96.4 | 101 | 101 | 99.1 | 112 | 84.6 | 96.3 | 97.9 | 96.1 | 94.2 | 96 | > 10 | > 10 | > 10 | > 10 | > 10 |
| CCc1cc(C(N)=S)ccn1 [ethionamide] | 0 | 0 | 0 | 0 | 0 | 100 | 90.6 | 97.9 | 102 | 102 | 95.7 | 92.7 | 96.5 | 92.6 | 102 | 97.8 | 94 | 97.1 | 94.7 | 96.3 | 90.8 | 92.2 | 98.7 | 93 | 95.7 | 96.7 | 101 | 101 | 91.5 | 99.7 | > 10 | > 10 | > 10 | > 10 | > 10 |
| CCOC(=O)c1ccc(O)cc1 [ethyl-paraben] | 0 | 0 | 0 | 0 | 0 | 108 | 102 | 101 | 94.7 | 97.8 | 101 | 94.3 | 101 | 99.2 | 100 | 96.3 | 97 | 107 | 98.3 | 106 | 96.6 | 93 | 106 | 97.3 | 92 | 102 | 99.7 | 98.9 | 104 | 99.8 | > 10 | > 10 | > 10 | > 10 | > 10 |
| COc1cc([C@@H]2c3cc4c(cc3[C@@H](O[C@@H]3O[C@@H]5CO[C@@H](C)O[C@H]5[C@H](O)[C@H]3O)[C@H]3COC(=O)[C@H]23)OCO4)cc(OC)c1OP(=O)(O)O [etoposide-phosphate] | 10 | 0 | 0 | 5 | 0.3 | 88.6 | 86.8 | 85.4 | 59.7 | 29.5 | 81.7 | 92.6 | 91.9 | 102 | 107 | 95.1 | 104 | 94.9 | 99.7 | 108 | 107 | 106 | 98.3 | 85.7 | 47.1 | 93.3 | 97.6 | 92.7 | 86.7 | 88.3 | 0.478 | > 10 | > 10 | 1.49 | > 10 |
| C[C@@H](O)[C@H]1C(=O)N2C(C(=O)O)=C([C@H]3CCCO3)S[C@H]12 [faropenem] | 0 | 0 | 0 | 0 | 0 | 103 | 99.4 | 104 | 103 | 98.7 | 95 | 91 | 101 | 100 | 95 | 101 | 101 | 94.6 | 96.6 | 98.8 | 106 | 96.5 | 99.6 | 98 | 105 | 97.2 | 99.5 | 102 | 96.8 | 97.1 | > 10 | > 10 | > 10 | > 10 | > 10 |
| CN1CC(=O)N=C1NC(=O)Nc1cccc(Cl)c1 [fenobam] | 0 | 0 | 0 | 0 | 0 | 110 | 99.4 | 112 | 97 | 103 | 93.1 | 94.4 | 90.1 | 103 | 97.7 | 96.6 | 106 | 98.2 | 102 | 98.3 | 102 | 101 | 100 | 105 | 97.1 | 100 | 97 | 99.5 | 100 | 101 | > 10 | > 10 | > 10 | > 10 | > 10 |
| CC(=O)O[C@]1(C(C)=O)CC[C@H]2[C@@H]3C[C@H](C)C4=CC(=O)C=C[C@]4(C)[C@@]3(F)[C@@H](O)C[C@@]21C [fluorometholone-acetate] | 0 | 0.1 | 0 | 0 | 0 | 102 | 95.6 | 101 | 92.7 | 89.7 | 99.9 | 109 | 99.1 | 104 | 86.6 | 105 | 103 | 99.3 | 98.5 | 96.2 | 103 | 100 | 97.8 | 106 | 98.9 | 93.5 | 98.3 | 93.9 | 95.7 | 90.4 | > 10 | > 10 | > 10 | > 10 | > 10 |
| Oc1cc2c(cc1O)[C@@H]1c3ccc(O)c(O)c3OC[C@]1(O)C2 [hematoxylin] | 0 | 0 | 0 | 0 | 0 | 104 | 100 | 96.4 | 104 | 105 | 98.4 | 89.9 | 93 | 108 | 90 | 98.5 | 93.5 | 99.2 | 103 | 91.1 | 97.1 | 103 | 92.4 | 110 | 96.1 | 95.2 | 99.3 | 92.7 | 95.5 | 102 | > 10 | > 10 | > 10 | > 10 | > 10 |
| Fc1ccc2c(CCNCc3cccc(OCC(F)(F)C(F)F)c3)c[nH]c2c1 [idalopirdine] | 0 | 0 | 0 | 0 | 0.5 | 97.5 | 93.7 | 99.2 | 94.8 | 88.2 | 96.3 | 97.5 | 91.5 | 87.1 | 109 | 95.3 | 97 | 99.7 | 95.4 | 96.7 | 90.3 | 102 | 91.4 | 101 | 99.7 | 101 | 95.2 | 98.7 | 95.2 | 84.9 | > 10 | > 10 | > 10 | > 10 | > 10 |
| C[C@@H](O)[C@H]1C(=O)N2C(C(=O)O)=C(SCCNC=N)C[C@H]12 [imipenem] | 0 | 0 | 0 | 0 | 0 | 98.7 | 98.5 | 96.2 | 100 | 107 | 97.2 | 98.4 | 98.2 | 92.6 | 106 | 99.1 | 98.2 | 102 | 97.4 | 97.2 | 88 | 87.6 | 107 | 86.3 | 93.4 | 97.9 | 102 | 89.2 | 100 | 110 | > 10 | > 10 | > 10 | > 10 | > 10 |

Source: the supplement of paper PMC13380429
